Read-outs that look alike come from different tables or passages of the source.
Experiments:
[1] = test system: B cell lymphoma cell lines; assay: B cell lymphoma proliferation assay; format: cell-based; conditions: Homo sapiens
JAK3 = JAK3 (Homo sapiens (Human), UniProt P52333); assay: Omnia assay for potency assessment against the active form of JAK3; format: biochemical; conditions: read-out: JAK3 Inhibition
Method: Briefly, 10× stocks of EGFR-WT (PV3872) from Invitrogen and EGFR-T790M/L858R (40350) from BPS Bioscience, San Diego, Calif., 1.13×ATP (AS001A) and appropriate Tyr-Sox conjugated peptide substrates (KCZ1001) were prepared in 1× kinase reaction buffer consisting of 20 mM Tris, pH 7.5, 5 mM MgCl2, 1 mM EGTA, 5 mM β-glycerophosphate, 5% glycerol (10× stock, KB002A) and 0.2 mM DTT (DS001A).
The Omnia Assay Protocol for potency assessment against JAK3 was performed in a substantially similar manner as that described in Example 251 above except that the modified JAK3-optimized reagent conditions were:
[JAK3]=5 nM, [ATP]=5 μM, [Y12-Sox]=5 μM (ATP KMapp˜5 μM).

BTK [2] = molecular target: T1, BTK (Homo sapiens (Human), UniProt Q06187); assay: Omnia assay for potency assessment against BTK; format: biochemical; conditions: [BTK]=5 nm; read-out: BTK Inhibition
Method: Omnia Assay Protocol for Potency Assessment Against BTK
The modified BTK-optimized reagent conditions for the above protocol are:
[BTK]=5 nm, [ATP]=40 mM, [Y5-Sox]=10 mM (ATP KMapp˜36 mM).

EGFR-WT = EGFR-WT (Homo sapiens (Human), UniProt P00533); assay: Omnia assay for potency assessment against EGFR (WT); format: biochemical; conditions: wild-type EGFR; read-out: EGFR Wild Type Inhibition
BTK [3] = molecular target: T1, BTK; assay: Washout experiment with Ramos cells; format: cell-based; conditions: 100 nM compound 1 hour, then washout
Method: Ramos cells were serum starved for one hour in RPMI media +1% glutamine at 37° C. After starvation, Ramos cells were treated with 100 nM compound diluted in serum free RPMI media for 1 hour. After compound treatment, the media was removed and cells were washed with compound-free media. Subsequently, Ramos cells were washed every 2 hours and resuspended in fresh compound-free media. Cells were collected at specified timepoints, treated with 1 ug anti-human IgM (Southern Biotech cat #2022-01) for 10 minutes on ice to induce BCR signaling and then washed in PBS. Ramos cells were then lysed in Cell Extraction Buffer (Invitrogen FNN0011) supplemented with Roche complete protease inhibitor tablets (Roche 11697498001) and phosphatase inhibitors (Roche 04 906 837 001) and 18 ug total protein lysate was loaded in each lane. Inhibition of BTK kinase activity was assayed by measuring its substrate (PLCγ2) phosphorylation by western blot with phospho-specific antibodies from Cell Signaling Technologies cat #3871. The results of this experiment with compounds I-2, I-4 and I-7 are depicted in FIGS. 1, 2 and 3.

[4] = DOHH-2, DOHH2 B cell lymphoma cell line, read-out: EC50 (μM) DOHH2
[5] = WSUDLCL2, WSU-DLCL2 B cell lymphoma cell line, read-out: EC50 (μM) WSU-DLCL2

T1 sequence (Q06187 whole entry): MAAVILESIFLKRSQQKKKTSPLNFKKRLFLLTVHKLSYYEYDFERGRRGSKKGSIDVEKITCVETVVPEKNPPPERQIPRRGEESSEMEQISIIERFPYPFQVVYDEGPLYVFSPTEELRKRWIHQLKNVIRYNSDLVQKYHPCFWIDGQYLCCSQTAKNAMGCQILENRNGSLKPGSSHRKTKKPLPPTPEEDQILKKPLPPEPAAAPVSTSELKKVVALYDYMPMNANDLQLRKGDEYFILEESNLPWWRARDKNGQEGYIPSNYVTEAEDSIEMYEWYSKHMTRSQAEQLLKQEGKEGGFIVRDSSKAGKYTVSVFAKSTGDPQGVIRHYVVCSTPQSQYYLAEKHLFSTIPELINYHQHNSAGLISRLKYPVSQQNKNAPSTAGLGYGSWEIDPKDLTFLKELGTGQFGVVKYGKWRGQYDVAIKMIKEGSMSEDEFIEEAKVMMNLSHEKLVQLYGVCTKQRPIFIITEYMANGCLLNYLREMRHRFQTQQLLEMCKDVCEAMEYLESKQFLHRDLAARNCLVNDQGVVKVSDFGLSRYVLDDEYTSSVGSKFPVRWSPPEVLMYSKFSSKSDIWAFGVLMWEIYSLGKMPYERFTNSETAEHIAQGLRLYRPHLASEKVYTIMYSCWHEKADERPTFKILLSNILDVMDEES
Sequence of JAK3 (P52333 whole entry): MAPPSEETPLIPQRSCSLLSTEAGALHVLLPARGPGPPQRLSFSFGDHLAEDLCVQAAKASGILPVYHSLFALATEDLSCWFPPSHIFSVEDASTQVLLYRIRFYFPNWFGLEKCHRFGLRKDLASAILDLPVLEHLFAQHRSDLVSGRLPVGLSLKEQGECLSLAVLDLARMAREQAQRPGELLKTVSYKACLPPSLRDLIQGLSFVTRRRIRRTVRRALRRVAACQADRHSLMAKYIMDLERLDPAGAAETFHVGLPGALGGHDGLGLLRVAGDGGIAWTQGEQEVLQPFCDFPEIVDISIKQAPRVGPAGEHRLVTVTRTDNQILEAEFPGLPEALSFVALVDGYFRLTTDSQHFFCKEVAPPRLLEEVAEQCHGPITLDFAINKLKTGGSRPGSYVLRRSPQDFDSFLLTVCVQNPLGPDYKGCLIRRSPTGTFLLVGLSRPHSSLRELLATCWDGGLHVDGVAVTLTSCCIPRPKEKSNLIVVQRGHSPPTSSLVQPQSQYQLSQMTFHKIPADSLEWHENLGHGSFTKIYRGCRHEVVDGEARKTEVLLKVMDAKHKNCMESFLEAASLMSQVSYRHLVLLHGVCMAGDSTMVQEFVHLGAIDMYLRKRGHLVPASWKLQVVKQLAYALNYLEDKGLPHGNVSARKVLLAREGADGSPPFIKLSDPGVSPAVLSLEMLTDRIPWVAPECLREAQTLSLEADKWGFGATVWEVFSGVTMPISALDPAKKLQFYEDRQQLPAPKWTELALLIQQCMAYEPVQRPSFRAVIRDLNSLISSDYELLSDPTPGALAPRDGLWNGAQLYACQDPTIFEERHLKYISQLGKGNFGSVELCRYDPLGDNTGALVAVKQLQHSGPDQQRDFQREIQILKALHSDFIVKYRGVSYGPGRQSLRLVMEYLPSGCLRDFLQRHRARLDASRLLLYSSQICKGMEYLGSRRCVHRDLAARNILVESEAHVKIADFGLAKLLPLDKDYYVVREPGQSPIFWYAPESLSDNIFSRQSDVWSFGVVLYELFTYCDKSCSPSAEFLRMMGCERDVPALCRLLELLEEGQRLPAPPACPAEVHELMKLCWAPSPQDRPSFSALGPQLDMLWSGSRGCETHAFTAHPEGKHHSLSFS

EC50 [1, 4] | EC50 [1, 5] | IC50 (JAK3) | IC50 (BTK [2]) | IC50 (EGFR-WT) | BTK Inhibition Type (BTK [3]) | Molecule
1 to 10 µM | 1 to 10 µM | < 10 nM | – | – | – | C=CC(=O)Nc1ccc(Nc2nc(Nc3ccccc3)ncc2C)cc1 [Compound I-39, N-(4-(5-methyl-2-(phenylamino)pyrimidin-4-ylamino)phenyl) acrylamide]
– | – | – | 100 to 1000 nM | 100 to 1000 nM | – | C=CC(=O)N1CCC[C@H](Nc2nc(Nc3ccc(OC)nc3)ncc2F)C1 [Compound I-197, (S)-1-(3-(5-fluoro-2-(6-methoxypyridin-3-ylamino)pyrimidin-4-ylamino)piperidin-1-yl)prop-2-en-1-one]
> 10 µM | > 10 µM | – | – | – | irreversible | C=CC(=O)Nc1cccc(Oc2nc(Nc3ccccc3)ncc2F)c1 [Compound I-228, N-(3-(5-fluoro-2-(phenylamino)pyrimidin-4-yloxy)phenyl)acrylamide]
1 to 10 µM | > 10 µM | < 10 nM | – | – | – | C=CC(=O)Nc1cccc(Nc2nc(Nc3ccccc3)ncc2C(F)(F)F)c1 [Compound I-245, N-(3-(5-trifluoromethyl-2-(phenylamino)pyrimidin-4-ylamino)phenyl)acrylamide]
1 to 10 µM | 1 to 10 µM | – | – | – | irreversible | C=CC(=O)Nc1cccc(Nc2nc(Nc3ccccc3)ncc2C(N)=O)c1 [Compound I-230, 4-(3-acrylamidophenylamino)-2-(phenylamino)pyrimidine-5-carboxamide]
0.1 to 1 µM | 1 to 10 µM | < 10 nM | – | – | – | C=CC(=O)N1CCc2cc(Nc3nc(Nc4cccc(S(N)(=O)=O)c4)ncc3C)ccc2C1 [Compound I-40, 3-(4-(2-acryloyl-1,2,3,4-tetrahydroisoquinolin-6-ylamino)-5-methylpyrimidin-2-ylamino)benzenesulfonamide]
– | – | – | – | 10 to 100 nM | – | C=CC(=O)Nc1cccc(Nc2nc(Nc3ccc(O[C@@H](C)COC(=O)[C@@H](N)C(C)C)c(F)c3)ncc2F)c1 [Compound I-377, (S)-((S)-2-(4-(4-(3-acrylamidophenylamino)-5-fluoropyrimidin-2-ylamino)-2-fluorophenoxy)propyl) 2-amino-3-methylbutanoate]
– | – | – | < 10 nM | < 10 nM | – | C=CC(=O)Nc1cccc(Nc2nc(Nc3ccc(OCCOCCNC(=O)CCCC(=O)NCCCOCCOCCOCCCNC(=O)CCCC[C@@H]4SC[C@@H]5NC(=O)N[C@@H]54)cc3)ncc2F)c1 [Compound I-363, N1-(2-(2-(4-(4-(3-acrylamidophenylamino)-5-fluoropyrimidin-2-ylamino)phenoxy)ethoxy)ethyl)-N5-(15-oxo-19-((3aS,4S,6aR)-2-oxohexahydro-1H-thieno[3,4-d]imidazol-4-yl)-4,7,10-trioxa-14-azanonadecyl)glutaramide]
– | – | – | < 10 nM | < 10 nM | – | C=CC(=O)Nc1cccc(Nc2ncc(F)c(Nc3ccc(OCCOC)cc3)n2)c1 [Compound I-381, N-(3-(5-fluoro-4-(4-(2-methoxyethoxy)phenylamino)pyrimidin-2-ylamino)phenyl)acrylamide]
– | – | – | < 10 nM | 10 to 100 nM | – | C=CC(=O)Nc1cccc(Nc2nc(Nc3ccc(OCCN=[N+]=[N-])cc3)ncc2F)c1 [Compound I-376, N-(3-(2-(4-(2-azidoethoxy)phenylamino)-5-fluoropyrimidin-4-ylamino)phenyl)acrylamide]
– | – | < 10 nM | < 10 nM | < 10 nM | – | Cc1cccc(Nc2nc(Nc3cccc(NC(=O)/C=C/CN(C)C)c3)ncc2C)c1 [Compound I-360, (E)-4-(dimethylamino)-N-(3-(5-methyl-4-(m-tolylamino)pyrimidin-2-ylamino)phenyl)but-2-enamide]
– | – | – | < 10 nM | < 10 nM | – | C=CC(=O)Nc1cccc(Nc2nc(Nc3ccc(OCCOCCNC(=O)OC(C)(C)C)cc3)ncc2F)c1 [Compound I-370, tert-butyl 2-(2-(4-(4-(3-acrylamidophenylamino)-5-fluoropyrimidin-2-ylamino)phenoxy)ethoxy)ethylcarbamate]
– | – | – | < 10 nM | 10 to 100 nM | – | C=CC(=O)Nc1cccc(Nc2nc(Nc3ccc(OCCOCCN=[N+]=[N-])cc3)ncc2F)c1 [Compound I-371, N-(3-(2-(4-(2-(2-azidoethoxy)ethoxy)phenylamino)-5-fluoropyrimidin-4-ylamino)phenyl)acrylamide]
0.1 to 1 µM | – | < 10 nM | – | – | – | C=CC(=O)Nc1cccc(Nc2ncc(F)c(Nc3cccc(C)c3)n2)c1 [Compound I-3, N-(3-(5-fluoro-4-(m-tolylamino)pyrimidin-2-ylamino)phenyl)acrylamide]
– | – | – | – | 10 to 100 nM | – | C=CC(=O)Nc1cccc(Nc2ncc(F)c(Nc3ccc(O[C@H]4CCOC4)cc3)n2)c1 [Compound I-338, (S)—N-(3-(5-fluoro-4-(4-(tetrahydrofuran-3-yloxy)phenylamino)pyrimidin-2-ylamino)phenyl)acrylamide]
– | – | – | < 10 nM | 10 to 100 nM | – | C=CC(=O)Nc1cccc(Nc2nc(Nc3ccc(OCCOC)c(OCCOC)c3)ncc2F)c1 [Compound I-277, N-(3-(2-(3,4-bis(2-methoxyethoxy)phenylamino)-5-fluoropyrimidin-4-ylamino)phenyl)acrylamide]
– | – | – | < 10 nM | 10 to 100 nM | – | C=CC(=O)Nc1cccc(Nc2nc(Nc3ccc(O[C@@H](C)CO)c(F)c3)ncc2F)c1 [Compound I-373, (S)—N-(3-(5-fluoro-2-(3-fluoro-4-(1-hydroxypropan-2-yloxy)phenylamino)pyrimidin-4-ylamino)phenyl)acrylamide]
– | – | – | 10 to 100 nM | 100 to 1000 nM | – | C=CC(=O)Nc1cccc(Nc2ncc(F)c(Nc3cccc(OCCN4CCOCC4)c3)n2)c1 [Compound I-382, N-(3-(5-fluoro-4-(3-(2-morpholinoethoxy)phenylamino)pyrimidin-2-ylamino)phenyl)acrylamide]
– | – | – | 1000 to 10000 nM | 1000 to 10000 nM | – | C=CC(=O)Nc1cccc(Oc2nc(Nc3cc(OC)c(OC)c(OC)c3)ncc2F)c1 [Compound I-148, N-(3-(5-fluoro-2(3,4,5-trimethoxyphenylamino)pyrimidin-4-yloxy)phenyl)acrylamide]
1 to 10 µM | > 10 µM | 10 to 100 nM | – | – | – | C=CC(=O)N1CCCC(Nc2nc(Nc3ccccc3)ncc2C)C1 (stereo not drawn) [Compound I-27]
– | – | – | < 10 nM | 10 to 100 nM | – | COCCOc1ccc(Nc2ncc(F)c(Nc3ccc(CC(=O)C=C4CCC4)cc3)n2)cc1F [Compound I-378]
– | – | – | < 10 nM | < 10 nM | – | C=CC(=O)Nc1cccc(Nc2nc(Nc3ccc(O[C@H](C)COC(=O)[C@@H](N)C(C)C)c(F)c3)ncc2F)c1 [Compound I-374, (S)-((R)-2-(4-(4-(3-acrylamidophenylamino)-5-fluoropyrimidin-2-ylamino)-2-fluorophenoxy)propyl) 2-amino-3-methylbutanoate]
– | – | – | – | 10 to 100 nM | – | C=CC(=O)N1CCOc2ccc(Nc3nc(Nc4ccc(OC)nc4)ncc3C(C)=O)cc21 [Compound I-170, 1-{6-[5-Acetyl-2-(6-methoxy-pyridin-3-ylamino)-pyrimidin-4-ylamino]-2,3-dihydro-benzo[1,4]oxazin-4-yl}-propenone]
– | – | – | < 10 nM | 10 to 100 nM | – | C=CC(=O)Nc1cccc(Nc2nc(Nc3ccc(O[C@H](C)CO)c(F)c3)ncc2F)c1 [Compound I-372, (R)—N-(3-(5-fluoro-2-(3-fluoro-4-(1-hydroxypropan-2-yloxy)phenylamino)pyrimidin-4-ylamino)phenyl)acrylamide]
– | – | – | < 10 nM | 100 to 1000 nM | – | C=CC(=O)Nc1cccc(Nc2nc(Nc3ccc(Cl)c(O[C@@H](C)COC(=O)[C@@H](N)C(C)C)c3)ncc2F)c1 [Compound I-369, (S)-((S)-2-(5-(4-(3-acrylamidophenylamino)-5-fluoropyrimidin-2-ylamino)-2-chlorophenoxy)propyl)-2-amino-3-methylbutanoate]
– | – | – | – | 100 to 1000 nM | – | C=CC(=O)Nc1cccc(Nc2nc(Nc3ccc(OCCOCCOCCN=[N+]=[N-])cc3)ncc2F)c1 [Compound I-379, N-(3-(2-(4-(2-(2-(2-azidoethoxy)ethoxy)ethoxy)phenylamino)-5-fluoropyrimidin-4-ylamino)phenyl)acrylamide]

Molecule | EC50 [1, 4] | EC50 [1, 5] | IC50 (JAK3) | IC50 (BTK [2]) | IC50 (EGFR-WT) | BTK Inhibition Type (BTK [3])
4-(4-(4-(3-acrylamidophenylamino)-5-fluoropyrimidin-2-ylamino)phenoxy)pyridine [Compound I-346] | – | – | – | < 10 nM | 100 to 1000 nM | –
